The values that follow come from US6656948B2, “Cytotoxic compounds: derivatives of the pyrido[2,3,4-kl]acridine ring system” (Universidad Complutense de Madrid, priority 1998, dated 2003).

Holding throughout (assay type): cell-based
The test system of test [1] is P-388 (ATCC CCL-46, suspension culture of a lymphoid neoplasm from DBA/2 mouse). In words: Cytotoxicity against P-388 cells, approximate IC50 from growth versus control wells. To be noted: P388, 72 h, three days of incubation. As for the experimental part: (§1) Its antitumor activity has been detected in vitro by culturing the tumor cells following the methodology described by Bergeron et al. ^16, and by Schroeder et al ^16. Activity against different tumors as mouse lymphoma, human NSC lung carcinoma, human melanoma and human colon carcinoma has been observed.
(§2) Biological activity: Cells were maintained in logarithmic phase of growth in Eagle's Minimum Essential Medium, with Earle's Balanced Salts, with 2.0 mM L-glutamine, with non-essential amino acids, without sodium bicarbonate (EMEM/neaa); suplemented with 10% Fetal Calf Serum (FCS), 10^−2 M sodium bicarbonate and 0,1 g/l penicillin-G+ streptomycin sulfate.
(§3) The tumor cell lines employed have been P-388 (ATCC CCL-46, suspension culture of a lymphoid neoplasm from DBA/2 mouse), A-549 (ATCC CCL-185, monolayer culture of a human lung carcinoma), HT-29 (ATCC HTB-38, monolayer culture of a human colon carcinoma) and MEL-28 (ATCC […], monolayer culture of a human melanoma).
P-388 cells were seeded into 16 mm wells at 1×10^4 cells per well in 1 ml aliquots of MEM 5FCS containing the indicated concentration of drug. A separate set of cultures without drug was seeded as control growth to ensure that cells remained in exponential phase of growth. All determinations were carried out in duplicate. After three days of incubation at 37° C., 10% CO2 in a 98% humide atmosphere, an aproximate IC50 was determined by comparing the growth in wells with drug to the growth in wells control.
(§4) In Table I are presented the cytotoxicity expressed as IC50 in μg/ml and μM

Test [2] has as its system MEL-28 (ATCC HTB-38, monolayer culture of a human melanoma). In words: Cytotoxicity against MEL-28 cells, crystal violet staining, approximate IC50. To be noted: SK-MEL-28, 72 h, three days of incubation. As for the experimental part:
as §1, §2, §3
(§5) A-549, HT-29 and MEL-28 were seeded into 16 mm wells at 2×10^4 cells per well in 1 ml aliquots of MEM 10FCS containing the indicated concentration of drug. A separate set of cultures without drug was seeded as control growth to ensure that cells remained in exponential phase of growth. All determinations were carried out in duplicate. After three days of incubation at 37° C., 10% CO2 in a 98% humide atmosphere, the wells were stained with 0.1% Crystal Violet. An aproximate IC50 was determined by comparing the growth in wells with drug to the growth in wells control.
as §4

Test [3] has as its system HT-29 (ATCC HTB-38, monolayer culture of a human colon carcinoma). In words: Cytotoxicity against HT-29 cells, crystal violet staining, approximate IC50. The note with it: HT-29, 72 h, three days of incubation. The method, then:
as §1, §2, §3, §5, §4

The test system of test [4] is A-549 (ATCC CCL-185, monolayer culture of a human lung carcinoma). Briefly: Cytotoxicity against A-549 cells, crystal violet staining, approximate IC50. The note with it: A549, 72 h, three days of incubation. The method, then:
as §1, §2, §3, §5, §4

Test [5] deals with several mammalian cancer cell lines. In words: In vitro antitumor activity by culturing tumor cells (overall statement). To be noted: mouse lymphoma, human NSC lung carcinoma, human melanoma, human colon carcinoma.
Description: as §1

SMILES strings stand for the structures.

As usually defined, the IC50 is the concentration that inhibits the measured activity by half. Read a low IC50 as greater potency in that assay.

As for `Cc1cc(=O)[nH]c2c1-c1nc3ccccc3c3ccnc(c13)C2=O` [IB-96213, 12-Methyl-9H-benzo[b]pyrido[4,3,2-d,e](1,7)phenantroline-8,10-dione], the IC50 in test [1] (duplicate) amounted to 0.1 µg/mL; in test [1] (value in brackets), 320 nM; in test [2] (duplicate) it was 0.001 µg/mL; in test [2] (value in brackets) it was 3 nM; in test [3] (duplicate), 1 µg/mL; in test [3] (value in brackets), 3180 nM. Also, the values for the IC50 in test [4] (duplicate) and in test [4] (value in brackets) were 0.001 µg/mL and 3 nM, respectively. For the same compound, the “antitumor activity against several mammalian cancer cell lines” value in test [5] is “good antitumor activity”.
As for `O=C1c2c(O)ccnc2-c2nc3ccccc3c3ccnc1c23` [IB-98205, 9-hydroxybenzo[b]pyrido[4,3,2-d,e](1,10)phenantrolin-8-one], the IC50 is 1.25 µg/mL in test [1] (duplicate); 4180 nM in test [1] (value in brackets); 0.05 µg/mL in test [2] (duplicate); 170 nM in test [2] (value in brackets); 0.12 µg/mL in test [3] (duplicate); 400 nM in test [3] (value in brackets). The IC50 turned out to be 0.012 µg/mL in test [4] (duplicate) and 40 nM in test [4] (value in brackets). Further, the “antitumor activity against several mammalian cancer cell lines” value in test [5] was “good antitumor activity”.
